Assay [1] addresses PDE5 (Homo sapiens, UniProt O76074). The assay is described as follows: PDE5 inhibition assay (SPA, 3H-cGMP). In kind it is biochemical. Particulars: Table 2. On the procedure:
(§1) Test compounds and PDE10A enzyme in assay buffer are added to 96-well whitewall/clear bottom isoplates (Wallac). The reaction is initiated by the addition of ^3H-cAMP (Amersham) or ^3H-cGMP (Amersham). Following a 45-minute incubation at room temperature, the reaction is stopped by the addition of SPA yttrium silicate beads (Amersham). The samples are incubated for an additional 30 minutes, and the plates are read in the Microbeta (Wallac) for 30 seconds in the SPA mode. Data may be expressed as a percentage of control. To measure PDE2, PDE3A, PDE4B, and PDE10A activity, 3H-cAMP may be used as a substrate; and to measure PDE5 activity, 3H-cGMP may be used as a substrate.
(§2) These same compounds were run in inhibition assays for PDE2, PDE3A, PDE4B, and PDE5. […] The compounds are therefore selective for PDE10A.

For assay [2], the target named is PDE3A (Homo sapiens, UniProt Q14432). The assay is described as follows: PDE3A inhibition assay (SPA, 3H-cAMP). In kind it is biochemical. Conditions: Table 2; read-out: PDE3 IC50. The procedure: as §1, §2
Assay [3] addresses PDE10A (Homo sapiens, UniProt Q9Y233). Put plainly: PDE10A inhibition assay (SPA, 3H-cAMP). Particulars: Table 2. Format: biochemical. The procedure:
as §1

Assay [4] relates to dispersed pancreatic islets. Put plainly: Dispersed islet assay (insulin secretion). In kind it is cell-based, rat. Particulars: 8 mM glucose, 0.3 μM forskolin, 30 minutes; control = 8 mM glucose and 0.3 μM forskolin. The procedure: Dispersed pancreatic islet isolation. Lean rats (male Sprague-Dawley, 200-250 g) are anesthetized with nembutal (60 mg/kg, i.p.) and the abdomen opened to expose the liver and pancreas. The pancreas is distended by injection of Hank's solution into the bile duct, and then the pancreas is excised and minced with scissors while in Hank's solution. After rinsing the tissue with buffer, the pancreas is digested for 10 minutes with collagenase, rinsed, and the islets separated from debris on a Ficoll gradient. The isolated islet fraction is then rinsed with buffer, incubated with EDTA for 8 minutes, followed by incubation with trypsin and DNAase I for an additional 10 minutes. The dispersed islets are transferred to culture media containing 8 mM glucose, seeded in “V-bottom” 96-well plates (2,500 cells per well), and cultured overnight.
For assaying insulinotropic compounds, the dispersed islets are pre-incubated in 3 mM glucose for 30 minutes. The islets are then transferred to media containing 8 mM glucose, test compounds, and 0.3 μM forskolin; and incubated for an additional 30 minutes. The media is then assayed for insulin content using, for example, a SPA assay. Insulin secretion is reported as fold over control (FOC), where the control is the amount of insulin secretion in the presence of 8 mM glucose and 0.3 μM forskolin.

For assay [5], the target named is PDE2 (Homo sapiens, UniProt O00408). The assay is described as follows: PDE2 inhibition assay (SPA, 3H-cAMP). Format: biochemical. Conditions: Table 2. On the procedure: as §1, §2
The target in assay [6] is PDE4B (Homo sapiens, UniProt Q07343). Put plainly: PDE4B inhibition assay (SPA, 3H-cAMP). Format: biochemical. Particulars: Table 2. The procedure: as §1, §2

Structures are written as SMILES. pIC50: −log10 of the molar value.

Sequence of PDE3A (Q14432 whole entry, species assumed): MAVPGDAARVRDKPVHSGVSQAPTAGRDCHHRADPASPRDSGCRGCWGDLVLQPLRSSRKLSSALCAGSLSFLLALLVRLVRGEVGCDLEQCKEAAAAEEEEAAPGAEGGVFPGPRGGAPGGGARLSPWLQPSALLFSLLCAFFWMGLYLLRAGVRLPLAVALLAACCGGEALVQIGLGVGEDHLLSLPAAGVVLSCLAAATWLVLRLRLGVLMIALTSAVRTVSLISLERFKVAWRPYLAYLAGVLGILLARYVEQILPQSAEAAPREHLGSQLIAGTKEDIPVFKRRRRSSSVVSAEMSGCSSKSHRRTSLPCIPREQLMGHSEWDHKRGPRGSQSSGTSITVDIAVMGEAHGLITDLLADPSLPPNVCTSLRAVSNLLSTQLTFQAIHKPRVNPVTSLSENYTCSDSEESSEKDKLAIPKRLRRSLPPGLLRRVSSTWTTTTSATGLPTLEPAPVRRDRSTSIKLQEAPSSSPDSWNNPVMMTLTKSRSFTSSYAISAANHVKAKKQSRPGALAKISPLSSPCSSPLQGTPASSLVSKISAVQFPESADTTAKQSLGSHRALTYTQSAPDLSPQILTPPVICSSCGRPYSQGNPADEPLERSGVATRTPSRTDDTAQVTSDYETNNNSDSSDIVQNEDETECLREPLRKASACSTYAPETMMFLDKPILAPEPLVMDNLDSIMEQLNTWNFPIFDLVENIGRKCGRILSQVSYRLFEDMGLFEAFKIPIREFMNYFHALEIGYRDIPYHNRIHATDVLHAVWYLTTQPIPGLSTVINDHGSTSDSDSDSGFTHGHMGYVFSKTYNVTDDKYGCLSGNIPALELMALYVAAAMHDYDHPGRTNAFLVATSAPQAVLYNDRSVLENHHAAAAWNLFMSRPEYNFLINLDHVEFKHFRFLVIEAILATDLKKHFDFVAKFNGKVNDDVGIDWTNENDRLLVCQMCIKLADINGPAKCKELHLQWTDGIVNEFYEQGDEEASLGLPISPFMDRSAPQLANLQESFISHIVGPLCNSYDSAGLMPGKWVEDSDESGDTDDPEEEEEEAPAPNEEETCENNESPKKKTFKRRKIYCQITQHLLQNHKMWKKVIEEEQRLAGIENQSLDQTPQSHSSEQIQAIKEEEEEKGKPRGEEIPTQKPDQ
Sequence of PDE10A (Q9Y233 whole entry, species assumed): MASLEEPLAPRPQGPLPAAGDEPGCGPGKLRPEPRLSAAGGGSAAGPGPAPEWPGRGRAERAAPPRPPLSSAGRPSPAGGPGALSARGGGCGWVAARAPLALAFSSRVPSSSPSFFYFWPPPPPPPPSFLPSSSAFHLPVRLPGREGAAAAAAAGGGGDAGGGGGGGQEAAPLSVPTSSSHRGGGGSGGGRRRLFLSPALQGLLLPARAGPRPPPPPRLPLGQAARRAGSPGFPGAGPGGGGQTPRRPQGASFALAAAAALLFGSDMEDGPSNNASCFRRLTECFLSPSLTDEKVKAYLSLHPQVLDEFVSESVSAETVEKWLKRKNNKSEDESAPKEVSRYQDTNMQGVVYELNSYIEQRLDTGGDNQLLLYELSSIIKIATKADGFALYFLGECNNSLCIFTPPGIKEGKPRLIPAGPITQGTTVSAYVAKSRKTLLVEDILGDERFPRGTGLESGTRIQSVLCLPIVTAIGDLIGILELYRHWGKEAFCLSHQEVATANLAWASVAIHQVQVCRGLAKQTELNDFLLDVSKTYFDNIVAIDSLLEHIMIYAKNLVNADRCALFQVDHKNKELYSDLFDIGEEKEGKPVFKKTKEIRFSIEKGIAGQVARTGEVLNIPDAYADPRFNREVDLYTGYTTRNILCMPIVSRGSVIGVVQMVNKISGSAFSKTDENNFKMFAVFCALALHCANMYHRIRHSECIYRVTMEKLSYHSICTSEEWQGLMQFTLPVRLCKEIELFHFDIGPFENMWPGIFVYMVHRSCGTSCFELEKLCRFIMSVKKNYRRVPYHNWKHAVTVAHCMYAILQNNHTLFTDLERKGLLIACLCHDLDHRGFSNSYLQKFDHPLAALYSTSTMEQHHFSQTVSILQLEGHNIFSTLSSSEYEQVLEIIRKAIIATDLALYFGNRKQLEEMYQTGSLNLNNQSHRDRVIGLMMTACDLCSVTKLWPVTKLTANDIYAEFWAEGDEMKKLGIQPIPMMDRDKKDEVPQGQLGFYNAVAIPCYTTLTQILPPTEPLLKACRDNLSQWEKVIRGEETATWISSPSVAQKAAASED
Sequence of PDE2 (O00408 whole entry): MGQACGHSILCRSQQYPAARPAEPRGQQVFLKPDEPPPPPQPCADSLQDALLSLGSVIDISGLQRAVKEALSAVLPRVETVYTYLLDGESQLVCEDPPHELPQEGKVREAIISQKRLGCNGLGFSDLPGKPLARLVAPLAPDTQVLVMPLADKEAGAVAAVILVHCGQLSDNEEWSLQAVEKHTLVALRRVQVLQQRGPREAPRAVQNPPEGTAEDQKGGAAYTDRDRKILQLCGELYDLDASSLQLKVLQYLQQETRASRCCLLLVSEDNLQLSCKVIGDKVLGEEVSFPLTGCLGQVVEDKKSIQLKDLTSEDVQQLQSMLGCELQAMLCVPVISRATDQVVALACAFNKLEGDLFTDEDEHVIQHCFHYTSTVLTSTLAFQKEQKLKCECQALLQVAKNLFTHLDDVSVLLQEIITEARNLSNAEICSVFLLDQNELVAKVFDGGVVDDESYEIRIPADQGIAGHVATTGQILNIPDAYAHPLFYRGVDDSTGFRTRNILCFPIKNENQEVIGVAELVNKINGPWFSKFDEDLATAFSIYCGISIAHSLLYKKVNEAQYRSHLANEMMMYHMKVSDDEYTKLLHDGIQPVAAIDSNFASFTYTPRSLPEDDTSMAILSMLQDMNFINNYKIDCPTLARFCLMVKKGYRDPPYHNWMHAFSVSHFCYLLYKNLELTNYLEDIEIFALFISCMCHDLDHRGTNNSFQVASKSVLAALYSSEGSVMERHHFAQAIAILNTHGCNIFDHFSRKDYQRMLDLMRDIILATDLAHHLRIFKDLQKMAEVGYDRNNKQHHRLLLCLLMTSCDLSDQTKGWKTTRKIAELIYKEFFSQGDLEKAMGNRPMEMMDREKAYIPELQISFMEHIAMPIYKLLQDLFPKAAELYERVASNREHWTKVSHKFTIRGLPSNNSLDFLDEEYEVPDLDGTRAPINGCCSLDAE
Sequence of PDE4B (Q07343 whole entry, species assumed): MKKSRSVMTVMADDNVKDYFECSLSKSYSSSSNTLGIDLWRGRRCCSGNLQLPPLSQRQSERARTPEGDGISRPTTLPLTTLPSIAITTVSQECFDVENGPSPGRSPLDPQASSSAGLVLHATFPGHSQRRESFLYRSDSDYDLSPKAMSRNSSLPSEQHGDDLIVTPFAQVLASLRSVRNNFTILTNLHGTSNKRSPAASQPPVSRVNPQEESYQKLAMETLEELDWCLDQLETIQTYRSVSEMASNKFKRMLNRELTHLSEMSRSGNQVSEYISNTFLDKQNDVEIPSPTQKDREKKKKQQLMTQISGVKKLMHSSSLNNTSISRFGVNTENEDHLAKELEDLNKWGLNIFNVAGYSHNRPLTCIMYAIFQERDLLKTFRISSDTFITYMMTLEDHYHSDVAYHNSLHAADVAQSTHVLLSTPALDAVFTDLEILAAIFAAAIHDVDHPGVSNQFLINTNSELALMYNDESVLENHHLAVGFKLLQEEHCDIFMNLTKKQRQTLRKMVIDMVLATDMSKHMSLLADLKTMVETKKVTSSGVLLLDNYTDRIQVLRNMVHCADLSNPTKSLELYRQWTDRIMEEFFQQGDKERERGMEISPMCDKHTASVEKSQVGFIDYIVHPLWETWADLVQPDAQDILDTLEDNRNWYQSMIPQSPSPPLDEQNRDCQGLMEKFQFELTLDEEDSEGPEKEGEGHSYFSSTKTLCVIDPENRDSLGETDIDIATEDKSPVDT

With `CCOC(=O)c1c(-c2ccc(OC)cc2OC)c(C)n2c1-c1cc(OC)c(OC)cc1CC2` [B], the negative logarithm of the IC50 (pIC50) in assay [1] is under 5.00; in assay [2] it was under 5.00; in assay [3], 7.49; in assay [5], under 5.00. For the same compound, the “Insulin secretion, Fold-over-Control (FOC)” value in assay [4] is 1.44.
On to `CCOC(=O)c1c(-c2ccc(OC)c(OC)c2)c(C)n2c1-c1cc(OC)c(OC)cc1CC2` [C], for which the pIC50 in assay [1] is under 5.00; in assay [2] it was under 5.00; in assay [3] it was 7.58; in assay [5], under 5.00; in assay [6] it was under 5.00. Also, in assay [4], the “Insulin secretion, Fold-over-Control (FOC)” value came to 1.48.
On to `CCOC(=O)c1c(-c2ccc(O)c3ncccc23)c(C)n2c1-c1cc(OC)c(OC)cc1CC2` [Compound A], for which the pIC50 in assay [2] is under 5.00; in assay [3], 7.52. Moreover, in assay [4], the “Insulin secretion, Fold-over-Control (FOC)” value stood at 1.4.

The pIC50 is the IC50 on a negative log10 scale, so that one unit is a factor of ten.

The record behind these values is patent publication US20070032404A1, “Methods for treating diabetes and related disorders using pde10a inhibitors” (Bayer Pharmaceuticals Corporation, priority 2003, published 2007).
